For data set [1], the target named is T1, pooled human liver microsome (HLM) preparations (Homo sapiens, UniProt Q02928).
T1 sequence (Q02928 5-519): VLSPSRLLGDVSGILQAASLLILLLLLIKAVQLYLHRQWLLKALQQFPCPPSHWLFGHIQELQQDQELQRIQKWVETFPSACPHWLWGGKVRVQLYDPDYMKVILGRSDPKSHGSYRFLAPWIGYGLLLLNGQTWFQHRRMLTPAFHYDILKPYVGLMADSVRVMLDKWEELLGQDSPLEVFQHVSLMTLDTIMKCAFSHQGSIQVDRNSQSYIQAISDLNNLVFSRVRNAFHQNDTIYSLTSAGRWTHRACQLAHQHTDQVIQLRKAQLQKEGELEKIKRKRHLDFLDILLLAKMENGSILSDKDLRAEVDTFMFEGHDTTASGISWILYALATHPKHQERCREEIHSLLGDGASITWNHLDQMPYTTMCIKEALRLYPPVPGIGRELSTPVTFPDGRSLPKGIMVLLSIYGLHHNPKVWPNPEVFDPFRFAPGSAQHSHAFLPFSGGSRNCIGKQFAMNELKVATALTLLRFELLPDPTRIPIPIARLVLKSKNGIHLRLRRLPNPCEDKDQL
Briefly: Inhibition of MONACRA demethylation in pooled HLM preparations. Format: biochemical. The following applies: 150 µM MONACRA. The text has this:
(§1) To probe the role of CYP4A11 and CYP1A2 in MONACRA metabolism by HLM, we employed inhibitory analysis with the use of epalrestat as a specific inhibitor of CYP4A11 [22] and fluvoxamine as a CYP1A2 inhibitor [37]. We explored the effect of the inhibitors on the activity of recombinant CYP1A2 and CYP4A11, as well as the activity of six different preparations of HLM (preparation X347 was not available at the time of the study).
(§2) Figure 12: Effect of epalrestat (A) and fluvoxamine (B) on 3-(6-methoxynaphthalen-2-yl)acrylic acid (MONACRA) demethylation by recombinant CYP1A2 (black) and CYP4A11 (red) and three pooled human liver microsome (HLM) preparations: X263 (green), DNJ (blue), and WGP (brown). Solid lines represent the approximation of the datasets by eqn 1 (in the instances of pure inhibition) or a combination of two hyperbolic equations (in the cases of activation or combined inhibition and activation). All experiments were carried out at 150 µM MONACRA concentration. The datasets shown in the graphs represent the averages of the results of four (fluvoxamine) or two (epalrestat) individual experiments.
This study used preparations of pooled HLMs from 50, 150, or 200 donors (mixed gender). The preparations CDN, DNJ, and WGP were INVITROCYP 150-Donor Human Liver Microsomes obtained from BioIVT Corporation (Westbury, NY). Lot EGW is INVITROCYP M-Class 50-Donor HLM procured from the same company. Lots 1,910,096 and 1,210,347 were XTreme 200 Mixed Gender HLM (200 donors) purchased from XenoTech LLC (Kansas City, KS), currently a part of BioIVT. Lot 2,110,263 corresponds to mixed gender HLM from 50 donors from the same company. These lots are referred to herein as X096, X347, and X263, respectively. The supplier of the HLM preparations used in our studies, BioIVT Corporation, has declared to adhere to the regulations of the Department of Health and Human Services for the protection of human subjects (45 CFR §46.116 and §46.117) and Good Clinical Practice, (ICH E6) in obtaining the samples of human tissues used for producing the preparations of human subcellular fractions available from these companies.
Inhibition of MONACRA metabolism by epalrestat and fluvoxamine was studied using the high-throughput assay described above. The substrate concentration was kept constant at 150 µM. Each column of the well plate comprised eight wells with different concentrations of inhibitor complemented with two wells with no inhibitor added (100% activity samples) and two wells with no inhibitor and no NADPH added (‘blank’ samples). […] The fractional inhibition at each inhibitor concentration was determined from the ratio of the reaction rate in the presence of an inhibitor to the rate observed at no inhibitor added. The resulting dependence of the fractional inhibition on the inhibitor concentration was fitted to a four-parameter logistic equation (Hill equation):
(§3) (1) FI=v0−vi/v0=Amax[I]^N/IC50+[I]^N
In this equation, F I and vi are the fractional inhibition and the reaction velocity observed at inhibitor concentration [I], v0 is the reaction rate at no inhibitor added, and A max is the maximal amplitude of inhibition. IC 50 is the concentration of inhibitor at which the inhibition reaches 50% of its maximal amplitude (A max), and N is the Hill coefficient.

Data set [2] has as its target T2, CYP4A11 (Homo sapiens, UniProt Q02928).
T2 sequence (Q02928 5-519): T1 sequence (Q02928 5-519)
Briefly: Inhibition of MONACRA demethylation by recombinant CYP4A11. In kind it is biochemical. Also on record: purchased Gentest (Huntsville, AL), now a part of Discovery Life Sciences lot 2402280; host or cells: insect cells, recombinant baculovirus. The conditions noted are these: recombinant CYP4A11 Supersomes; 150 µM MONACRA.
Excerpt: as §1, §2
Inhibition of MONACRA metabolism by epalrestat and fluvoxamine was studied using the high-throughput assay described above. The substrate concentration was kept constant at 150 µM. Each column of the well plate comprised eight wells with different concentrations of inhibitor complemented with two wells with no inhibitor added (100% activity samples) and two wells with no inhibitor and no NADPH added (‘blank’ samples). […] The resulting dependence of the fractional inhibition on the inhibitor concentration was fitted to a four-parameter logistic equation (Hill equation):
as §3
IC 50 is the concentration of inhibitor at which the inhibition reaches 50% of its maximal amplitude (A max), and N is the Hill coefficient.

Substrate in data set [3]: COc1ccc2cc(C=CC(=O)O)ccc2c1
Briefly: MONACRA demethylation by recombinant CYP4A11 in Supersomes, high-throughput fluorimetric assay. In kind it is biochemical, human. The conditions noted are these: other: CYP4A11 Supersomes, Michaelis–Menten fit, 20 min at 30°C, ± = confidence interval P=0.05. Here is the method: Based on these observations, we developed a high-throughput automated assay applicable for studying SSPs of MONACRA metabolism by microsomal P450 enzymes. In this procedure, the incubation mixtures containing an NADPH-generating system and various substrate concentrations are placed in a multiwell plate and preincubated at 30°C in a thermostated shaker. The reaction is started by adding microsomal suspension to the final concentration of 0.3–1 mg/ml of microsomal protein or 0.02–0.1 µM of recombinant P450 enzymes in Supersomes. Following the incubation for 20 min at 30°C, the reaction is quenched by adding trichloroacetic acid (final concentration […]). After supplementing the wells with Na-glycine buffer (pH 10.4, final concentration 2.1 M), the plates are subjected to scanning the fluorescence spectra with excitation at 375 nm. This assay, which is described in detail in Materials and Methods, allows reliable detection of the concentrations of HONACRA as low as 0.1 µM.
We used the high-throughput activity assay described above to probe MONACRA metabolism by 16 human microsomal P450 enzymes, namely CYP1A2, CYP2A6, CYP2B6, CYP2C8, CYP2C9, CYP2C19, CYP2D6, CYP2E1, CYP2J2, CYP3A4, CYP3A5, CYP4A11, CYP4F2, CYP4F3A, CYP4F3B, and CYP4F12. […]

Where [4] appears, read: all studied HLM samples (six preparations).

Read-outs that look alike come from different tables or passages of the source.

In the case of `CC(/C=C1\SC(=S)N(CC(=O)O)C1=O)=C\c1ccccc1` [epalrestat], the “Inhibition (amplitude)” value worked out at 99.7±0.6% in data set [1] (HLM sample CDN); 93.0±2.3% in data set [1] (HLM sample DNJ); 99.8±0.4% in data set [1] (HLM sample EGW); 97.1±5.7% in data set [1] (HLM sample WGP); 93.9±0.7% in data set [1] (HLM sample X096); 100.0% in data set [1] (HLM sample X263). The IC50 in data set [1] (HLM sample CDN, unit not given (µM)) amounted to 1.48 ± 0.21 µM; in data set [1] (HLM sample DNJ, unit not given (µM)), 2.02 ± 1.7 µM; in data set [1] (HLM sample EGW, unit not given (µM)) it was 2.15 ± 0.52 µM; in data set [1] (HLM sample WGP, unit not given (µM)) it was 2.14 ± 0.94 µM; in data set [1] (HLM sample X096, unit not given (µM)) it was 5.36 ± 0.13 µM; in data set [1] (HLM sample X263, unit not given (µM)), 5.09 ± 1.04 µM. The IC50 in data set [1] (setting [4]) is 3 ± 1.4 µM; in data set [2], 1300 nM. Moreover, the amplitude of inhibition in data set [1] (setting [4]) is recorded as 97.2±2.5. For the same molecule, the “effect on MONACRA demethylation by CYP4A11” value in data set [2] is “complete inhibition”.
`COCCCC/C(=N\OCCN)c1ccc(C(F)(F)F)cc1` [fluvoxamine]: in data set [1] (HLM preparation DNJ), the amplitude of inhibition turned out to be 69%. Also, in data set [1] (HLM preparation DNJ, read-out: IC 50), the IC50 worked out at 14 µM. Further, the “effect on MONACRA metabolism in HLM” value in data set [1] (HLM preparations CDN, WGP and X096) is “combination of an inhibitory effect at lower concentrations with an activation that manifests itself as the concentration increases”; in data set [1] (HLM preparations EGW and X263), “activation similar to that observed in CYP4A11 Supersomes”. Besides, the “effect on MONACRA demethylation by CYP4A11” value in data set [2] is given as “pronounced activation”.

B1: CYP4A11 (Homo sapiens) (protein)
chain: T1 sequence (Q02928 5-519)
notes: purchased Gentest (Huntsville, AL), now a part of Discovery Life Sciences lot 2402280; host or cells: insect cells, recombinant baculovirus
Usually Km stands for the concentration of substrate that gives half-maximal velocity. One may read the kcat as the maximal rate divided by the concentration of active sites. For the molecule B1, in data set [3], the Michaelis constant (Km) turned out to be 189 ± 37 µM and the catalytic constant (kcat) was 1.12 ± 0.3 s⁻¹.

These data come from article PMC12191924, “A new naphthalene-based fluorogenic substrate for cytochrome P450 4A11” (Biochemical Journal, 2025).
